This note sets out measurements from ChEMBL document CHEMBL5365518, “Synthesis and Validation of the First Cell-Impermeable Hsp90α-Selective Inhibitors” (ACS Med Chem Lett, 2023).

Data set [1] has as its target Heat shock protein HSP 90-alpha (Homo sapiens, UniProt P07900). Description: Binding affinity HSP90alpha (unknown origin) incubated for 24 hrs by fluorescence polarization assay. On the technique in general: Fluorescence polarisation rises when a labelled molecule tumbles more slowly, as on binding a larger partner.
For data set [2], the target named is Heat shock protein HSP 90-beta (Homo sapiens, UniProt P08238). Description: Binding affinity HSP90beta (unknown origin) incubated for 24 hrs by fluorescence polarization assay.
Sequence of Heat shock protein HSP 90-beta (P08238 whole entry): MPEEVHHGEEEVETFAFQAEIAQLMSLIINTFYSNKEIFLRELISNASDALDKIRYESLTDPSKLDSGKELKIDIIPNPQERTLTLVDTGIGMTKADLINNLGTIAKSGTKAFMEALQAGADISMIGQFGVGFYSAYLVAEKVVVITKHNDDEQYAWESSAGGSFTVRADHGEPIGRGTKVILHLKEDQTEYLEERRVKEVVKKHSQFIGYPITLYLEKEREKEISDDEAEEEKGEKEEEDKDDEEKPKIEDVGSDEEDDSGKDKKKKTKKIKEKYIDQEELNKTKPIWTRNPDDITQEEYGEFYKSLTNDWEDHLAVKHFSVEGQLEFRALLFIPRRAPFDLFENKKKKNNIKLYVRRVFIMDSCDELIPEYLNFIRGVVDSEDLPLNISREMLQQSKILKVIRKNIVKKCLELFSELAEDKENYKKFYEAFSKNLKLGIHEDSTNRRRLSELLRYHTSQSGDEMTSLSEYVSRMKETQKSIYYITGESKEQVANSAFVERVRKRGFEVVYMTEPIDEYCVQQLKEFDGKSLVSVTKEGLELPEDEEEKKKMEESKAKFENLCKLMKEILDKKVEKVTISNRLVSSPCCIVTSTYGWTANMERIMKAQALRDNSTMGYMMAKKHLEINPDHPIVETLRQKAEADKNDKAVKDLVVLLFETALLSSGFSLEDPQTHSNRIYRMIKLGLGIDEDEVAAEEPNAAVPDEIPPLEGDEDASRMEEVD
The nature of data set [3]: Effective permeability of compound in PBS buffer at pH 7.4 incubated for 5 hrs by PAMPA assay. Format: ADME. The settings on record: read-out: Peff. (PAMPA measures passive passage across an artificial lipid membrane.)
Data set [4] is described as follows: Selectivity index, ratio of IC50 for binding affinity to HSP90beta (unknown origin) to IC50 for binding affinity to HSP90alpha (unknown origin).
Another data set has as its target Endoplasmin (Homo sapiens, UniProt P14625). Description: Binding affinity to Grp94 (unknown origin) incubated for 24 hrs by fluorescence polarization assay.
Data set [5] addresses T1, Heat shock protein 75 kDa, mitochondrial (Homo sapiens, UniProt Q12931).
T1 sequence (Q12931 whole entry): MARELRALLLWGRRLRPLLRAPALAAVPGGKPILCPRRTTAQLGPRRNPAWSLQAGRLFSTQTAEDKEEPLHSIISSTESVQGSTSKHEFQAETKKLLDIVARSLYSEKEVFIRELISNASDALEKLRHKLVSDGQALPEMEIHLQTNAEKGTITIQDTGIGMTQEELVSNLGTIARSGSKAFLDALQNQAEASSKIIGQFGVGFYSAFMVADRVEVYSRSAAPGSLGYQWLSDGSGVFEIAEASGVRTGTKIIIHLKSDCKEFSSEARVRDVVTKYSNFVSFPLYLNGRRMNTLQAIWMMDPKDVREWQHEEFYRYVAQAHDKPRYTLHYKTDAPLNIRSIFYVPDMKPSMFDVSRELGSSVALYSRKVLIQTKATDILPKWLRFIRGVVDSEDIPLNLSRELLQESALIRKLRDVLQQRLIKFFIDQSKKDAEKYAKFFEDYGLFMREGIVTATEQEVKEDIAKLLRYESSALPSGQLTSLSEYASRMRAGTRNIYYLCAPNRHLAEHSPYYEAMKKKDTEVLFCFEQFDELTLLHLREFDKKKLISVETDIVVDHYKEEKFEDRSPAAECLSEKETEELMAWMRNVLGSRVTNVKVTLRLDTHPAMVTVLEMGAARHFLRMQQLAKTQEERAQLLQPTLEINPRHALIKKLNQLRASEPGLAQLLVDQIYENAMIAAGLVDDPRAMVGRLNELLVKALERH
Description: Binding affinity to Trap1 (unknown origin) incubated for 24 hrs by fluorescence polarization assay.

In data set [6] the test system is OVCAR-8. Put plainly: Antiproliferative activity against human OVCAR-8 cells assessed as inhibition of cell growth incubated for 72 hrs by MTS assay. Format: functional, cell-based. The settings on record: OVCAR-8, 72 h. In general terms: Formazan colour is commonly taken as a measure of viable cells.
A short description of data set [7]: Antiproliferative activity against human MCF-10A cells assessed as inhibition of cell growth incubated for 72 hrs by MTS assay. It is filed as toxicity, cell-based.
For another data set, the target named is Heat shock protein HSP90 (Homo sapiens, UniProt P07900+P08238). Description: Disruption of HSP90-mediated hERG channel maturation transfected in HEK293 cells assessed as appearance of fully glycosylated form at 100 uM incubated for 24 hrs by Western blot analysis. It is filed as toxicity, cell-based. The settings on record: hek293, 24 h.
The test system of data set [8] is OVCAR-8. Put plainly: Induction of heat shock response in human OVCAR-8 cells assessed as increase in HSP90 level at 1 to 100 uM incubated for 24 hrs by Western blot analysis. Format: functional, cell-based. The settings on record: dose 1-100 µM.
The target in data set [9] is RAC-alpha serine/threonine-protein kinase (Homo sapiens) (UniProt P31749). Put plainly: Induction of AKT degradation in human OVCAR-8 cells at 1 to 100 uM incubated for 24 hrs by Western blot analysis. The settings on record: dose 1-100 µM. Format: cell-based.
Sequence of RAC-alpha serine/threonine-protein kinase (Homo sapiens) (P31749 whole entry): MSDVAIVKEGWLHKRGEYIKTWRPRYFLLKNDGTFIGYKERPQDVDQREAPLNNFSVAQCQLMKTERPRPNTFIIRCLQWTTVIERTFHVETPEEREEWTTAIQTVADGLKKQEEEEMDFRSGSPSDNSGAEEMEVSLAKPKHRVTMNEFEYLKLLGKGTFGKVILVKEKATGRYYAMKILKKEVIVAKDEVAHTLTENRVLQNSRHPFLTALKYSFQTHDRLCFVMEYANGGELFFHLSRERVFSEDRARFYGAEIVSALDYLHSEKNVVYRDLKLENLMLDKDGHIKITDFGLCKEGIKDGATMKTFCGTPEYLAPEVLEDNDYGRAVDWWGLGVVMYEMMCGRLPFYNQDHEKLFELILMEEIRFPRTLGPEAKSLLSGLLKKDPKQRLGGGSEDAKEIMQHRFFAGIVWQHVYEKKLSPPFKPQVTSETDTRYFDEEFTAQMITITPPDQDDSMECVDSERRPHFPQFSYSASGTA
Data set [10] shares this target. Put plainly: Inhibition of AKT phosphorylation in human OVCAR-8 cells assessed as reduction in pAKT level incubated for 24 hrs by Western blot analysis. The settings on record: dose 1-100 µM. It is filed as cell-based.
Data set [11] deals with OVCAR-8. Description: Effect on HER2 level in human OVCAR-8 cells at 1 to 100 uM incubated for 24 hrs by Western blot analysis. Format: functional, cell-based. The settings on record: dose 1-100 µM.
Data set [12] deals with OVCAR-8. Description: Effect on TLR2 level in human OVCAR-8 cells at 1 to 100 uM incubated for 24 hrs by Western blot analysis. Format: functional, cell-based. The settings on record: dose 1-100 µM.
The subject of data set [13] is OVCAR-8. Put plainly: Effect on TGFbetaR level in human OVCAR-8 cells at 1 to 100 uM incubated for 24 hrs by Western blot analysis. Format: functional, cell-based. The settings on record: dose 1-100 µM.
Data set [14] concerns OVCAR-8. Description: Induction of heat shock response in human OVCAR-8 cells assessed as increase in HSP90 level at 100 nM incubated for 24 hrs by Western blot analysis. It is filed as functional, cell-based.
The target of data set [15] is RAC-alpha serine/threonine-protein kinase (Homo sapiens) (UniProt P31749). Put plainly: Induction of AKT degradation in human OVCAR-8 cells incubated for 24 hrs by Western blot analysis. The settings on record: dose 1-100 µM. It is filed as cell-based.

The source made the active and inactive calls. The rule behind the calls is not given here.

Sequence of Endoplasmin (P14625 whole entry): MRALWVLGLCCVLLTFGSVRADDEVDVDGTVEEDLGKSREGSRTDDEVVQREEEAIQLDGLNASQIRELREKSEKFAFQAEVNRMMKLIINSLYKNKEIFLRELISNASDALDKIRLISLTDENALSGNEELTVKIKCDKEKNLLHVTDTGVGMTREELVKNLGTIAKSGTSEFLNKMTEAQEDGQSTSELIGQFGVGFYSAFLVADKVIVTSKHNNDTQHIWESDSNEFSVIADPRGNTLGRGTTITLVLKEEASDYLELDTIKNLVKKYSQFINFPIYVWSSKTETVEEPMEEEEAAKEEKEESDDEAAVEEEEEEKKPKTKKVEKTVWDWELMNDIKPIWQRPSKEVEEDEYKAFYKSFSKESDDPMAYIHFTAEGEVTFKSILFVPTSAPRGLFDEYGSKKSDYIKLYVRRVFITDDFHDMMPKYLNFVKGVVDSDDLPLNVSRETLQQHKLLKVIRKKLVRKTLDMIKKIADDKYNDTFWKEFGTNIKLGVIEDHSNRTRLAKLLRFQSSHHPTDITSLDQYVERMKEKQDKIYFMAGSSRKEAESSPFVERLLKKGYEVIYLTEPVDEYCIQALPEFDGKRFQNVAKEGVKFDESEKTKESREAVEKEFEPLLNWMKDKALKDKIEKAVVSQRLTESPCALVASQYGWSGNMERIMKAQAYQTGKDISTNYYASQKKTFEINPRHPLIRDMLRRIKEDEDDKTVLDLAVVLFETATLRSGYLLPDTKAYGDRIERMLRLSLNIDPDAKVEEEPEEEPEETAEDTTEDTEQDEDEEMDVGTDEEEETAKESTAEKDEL

Usually IC50 stands for the midpoint of a concentration-inhibition curve. In the case of `CC[N+](C)(C)CCCOc1ccc2c(c1)CN(C(=O)c1ccc(O)c(Sc3ccc(C)c(C)c3)c1)C2.O=C([O-])C(F)(F)F`, the IC50 in [1] and in data set [2] was more than 100 µM each time. Further, the Papp at 5 h in data set [3] came out at 1.05 ×10⁻⁶ cm/s.
On to `Cc1ccc(Sc2cc(C(=O)N3Cc4ccc(OCCC[N+](C)(C)Cc5ccccc5)cc4C3)ccc2O)cc1C.O=C([O-])C(F)(F)F`, for which, in data set [4], the Ratio IC50 is more than 104. In addition, the IC50 in data set [1] is 0.96 µM; in data set [2], more than 100 µM. Moreover, in data set [3], the Papp at 5 h is 3.74 ×10⁻⁶ cm/s.
Consider `Cc1ccc(Sc2cc(C(=O)N3Cc4ccc(OCCC[N+](C)(C)[O-])cc4C3)ccc2O)cc1C`, for which the Ratio IC50 in [4] was more than 2. Besides, the IC50 in data set [1] was 43.1 µM; in [2] it was more than 100 µM.
Regarding `CC[N+](C)(C)CCOc1ccc2c(c1)CN(C(=O)c1ccc(O)c(Sc3ccc(C)c(C)c3)c1)C2`, in data set [4], the Ratio IC50 is more than 12. The IC50 is 0.36 µM in [1] and 8.39 µM in data set [2].
For `Cc1ccc(Sc2cc(C(=O)N3Cc4ccc(OCCCC[N+](C)(C)C)cc4C3)ccc2O)cc1C`, in data set [4], the Ratio IC50 was more than 13. Besides, the results for the IC50 in [1] and in [2] were 7.36 µM and more than 100 µM, respectively.
Consider `Cc1ccc(Sc2cc(C(=O)N3Cc4ccc(OCC[N+](C)(C)[O-])cc4C3)ccc2O)cc1C`, for which the IC50 in [1] and in data set [2] was more than 100 µM in each case.
Regarding `Cc1ccc(Sc2cc(C(=O)N3Cc4ccc(OCCCCN(C)C)cc4C3)ccc2O)cc1C`, the Ratio IC50 in [4] is more than 126. Besides, the IC50 was 0.79 µM in data set [1] and more than 100 µM in data set [2].
Regarding `Cc1ccc(Sc2cc(C(=O)N3Cc4ccc(OCCC[N+](C)(C)C)cc4C3)ccc2O)cc1C.O=C([O-])C(F)(F)F`, the IC50 in data set [1] was 0.34 µM; in data set [2], more than 100 µM; on Endoplasmin, more than 100 µM; in data set [5] it was more than 100 µM; with OVCAR-8 [6], more than 100 µM. Moreover, the Papp at 5 h in data set [3] was found to be 0.644 ×10⁻⁶ cm/s. Moreover, the 50% inhibitory concentration (IC50) at 72 h in data set [7] is more than 100 µM. The result at Heat shock protein HSP90 was Active. In addition, the result (with OVCAR-8 [8]; in [9]) was inactive. The inhibition entry in data set [10] was “Dose-Dependent Effect”. Moreover, the result with OVCAR-8 [11], in the data set with OVCAR-8 [12] and in the data set with OVCAR-8 [13] was Active.
For the compound `Cc1ccc(Sc2cc(C(=O)N3Cc4ccc(OCC[N+](C)(C)C)cc4C3)ccc2O)cc1C.O=C([O-])C(F)(F)F`, the IC50 in data set [1] is 0.65 µM; in [2] it was more than 100 µM; at Endoplasmin it was more than 100 µM; in [5] it was more than 100 µM; with OVCAR-8 [6] it was more than 100 µM. The Papp at 5 h in data set [3] stood at 0.775 ×10⁻⁶ cm/s. The IC50 at 72 h in data set [7] was more than 100 µM.
In the case of `Cc1ccc(Sc2cc(C(=O)N3Cc4ccc(OCCCC[N+](C)(C)[O-])cc4C3)ccc2O)cc1C`, the IC50 was 90.3 µM in [1] and more than 100 µM in data set [2].
As for `Cc1ccc(Sc2cc(C(=O)N3Cc4ccc(OCCN(C)C)cc4C3)ccc2O)cc1C`, the IC50 in [1] was 0.85 µM; in data set [2], 96.1 µM; at Endoplasmin it was more than 100 µM; in [5] it was more than 100 µM; with OVCAR-8 [6] it was 13.5 µM. For the same compound, the half-maximal inhibitory concentration (IC50) at 72 h in data set [7] came out at 11.5 µM.
Turning to `CCNC(=O)c1noc(-c2cc(C(C)C)c(O)cc2O)c1-c1ccc(CN2CCOCC2)cc1`, the result in the data set on OVCAR-8 [14] was Active.
With `CC[N+](C)(C)CCCCOc1ccc2c(c1)CN(C(=O)c1ccc(O)c(Sc3ccc(C)c(C)c3)c1)C2`, the Ratio IC50 in [4] was more than 12. In addition, the 50% inhibitory concentration (IC50) in data set [1] was 7.94 µM; in [2] it was more than 100 µM.
`Cn1c(=O)c2c(ncn2C)n(C)c1=O` [CAFFEINE]: in [3], the Papp at 5 h came out at 17.3 ×10⁻⁶ cm/s.
With `Cc1ccc(Sc2cc(C(=O)N3Cc4ccc(OCCCN(C)C)cc4C3)ccc2O)cc1C`, the IC50 is 0.51 µM in data set [1]; more than 100 µM in [2]; more than 100 µM at Endoplasmin; more than 100 µM in data set [5]; 12.7 µM with OVCAR-8 [6]. The Papp at 5 h in data set [3] turned out to be 2.99 ×10⁻⁶ cm/s. The IC50 at 72 h in [7] turned out to be 11.7 µM. Besides, the outcome in the data set with OVCAR-8 [8] was Active. Further, the Activity result in [15] was “Dose-Dependent Effect”.
In the case of `Cc1ccc(Sc2cc(C(=O)N3Cc4ccc(OCC[N+](C)(C)Cc5ccccc5)cc4C3)ccc2O)cc1C`, in data set [4], the Ratio IC50 was more than 104. Further, the figures for the IC50 in data set [1] and in data set [2] were 0.96 µM and more than 100 µM, respectively.
